Data published in patent US20060063759A1, “Tricyclic steroid hormone nuclear receptor modulators” (priority 2002, published 2006).
Like-named read-outs stand apart in the source and are kept apart here.

How the values were obtained:
human MR = target: T1, human MR (Homo sapiens, UniProt P08235); assay: Mineralocorticoid Receptor Binding Assay ([3H]-aldosterone)
T1 construct: The full length human MR gene is cloned from a human kidney or human brain cDNA library; His tag from the pAcHLT vector (own knowledge); made in house; host or cells: Sf9 insect cells (baculovirus, pAcHLT transfer vector)
T1 sequence (P08235 1-984): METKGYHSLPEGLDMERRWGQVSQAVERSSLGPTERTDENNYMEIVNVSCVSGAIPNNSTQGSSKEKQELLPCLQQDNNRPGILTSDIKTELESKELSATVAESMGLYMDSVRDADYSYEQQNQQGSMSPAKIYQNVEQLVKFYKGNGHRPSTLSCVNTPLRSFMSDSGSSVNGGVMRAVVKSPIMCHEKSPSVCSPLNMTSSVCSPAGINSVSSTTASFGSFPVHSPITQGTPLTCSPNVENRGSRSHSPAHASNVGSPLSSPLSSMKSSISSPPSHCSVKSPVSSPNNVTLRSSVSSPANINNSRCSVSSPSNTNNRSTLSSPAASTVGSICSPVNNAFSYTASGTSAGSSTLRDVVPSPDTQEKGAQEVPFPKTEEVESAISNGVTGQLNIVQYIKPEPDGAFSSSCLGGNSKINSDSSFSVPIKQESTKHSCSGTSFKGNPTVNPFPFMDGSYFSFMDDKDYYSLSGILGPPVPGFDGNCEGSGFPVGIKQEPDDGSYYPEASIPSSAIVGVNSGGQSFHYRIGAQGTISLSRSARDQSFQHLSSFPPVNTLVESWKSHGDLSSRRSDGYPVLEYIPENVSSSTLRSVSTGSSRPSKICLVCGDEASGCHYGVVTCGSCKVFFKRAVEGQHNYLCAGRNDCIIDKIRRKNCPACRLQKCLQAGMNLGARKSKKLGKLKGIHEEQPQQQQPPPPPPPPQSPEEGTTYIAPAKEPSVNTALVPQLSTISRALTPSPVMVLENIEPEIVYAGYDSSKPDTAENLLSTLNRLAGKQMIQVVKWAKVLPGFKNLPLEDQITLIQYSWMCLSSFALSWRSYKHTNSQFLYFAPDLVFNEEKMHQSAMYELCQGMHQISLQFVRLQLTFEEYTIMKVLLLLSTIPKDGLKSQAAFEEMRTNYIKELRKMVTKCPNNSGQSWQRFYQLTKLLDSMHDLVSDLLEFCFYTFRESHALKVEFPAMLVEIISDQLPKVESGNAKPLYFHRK
Summary of the method: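 Receptor source: freeze-thaw lysate of baculovirus-infected Sf9 cells carrying full-length human MR, 20-25 μg protein. Incubation ~16 h at 4 °C with shaking, pH 7.5 buffer containing 30 mM sodium molybdate and 10% glycerol.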

glucocorticoid receptor = target: T2, glucocorticoid receptor (Homo sapiens, UniProt P04150); assay: Glucocorticoid Receptor Binding Assay ([3H]-dexamethasone, A549 cell extract); conditions: [3H]-dexamethasone binding, read-out: GR Ki
T2 construct: containing 50-200 ug of A549 cell extract and 1.86 nM [^3H]-dexamethasone; host or cells: A549 human lung epithelial cells (sonicated cell extract)
T2 sequence (P04150 1-777): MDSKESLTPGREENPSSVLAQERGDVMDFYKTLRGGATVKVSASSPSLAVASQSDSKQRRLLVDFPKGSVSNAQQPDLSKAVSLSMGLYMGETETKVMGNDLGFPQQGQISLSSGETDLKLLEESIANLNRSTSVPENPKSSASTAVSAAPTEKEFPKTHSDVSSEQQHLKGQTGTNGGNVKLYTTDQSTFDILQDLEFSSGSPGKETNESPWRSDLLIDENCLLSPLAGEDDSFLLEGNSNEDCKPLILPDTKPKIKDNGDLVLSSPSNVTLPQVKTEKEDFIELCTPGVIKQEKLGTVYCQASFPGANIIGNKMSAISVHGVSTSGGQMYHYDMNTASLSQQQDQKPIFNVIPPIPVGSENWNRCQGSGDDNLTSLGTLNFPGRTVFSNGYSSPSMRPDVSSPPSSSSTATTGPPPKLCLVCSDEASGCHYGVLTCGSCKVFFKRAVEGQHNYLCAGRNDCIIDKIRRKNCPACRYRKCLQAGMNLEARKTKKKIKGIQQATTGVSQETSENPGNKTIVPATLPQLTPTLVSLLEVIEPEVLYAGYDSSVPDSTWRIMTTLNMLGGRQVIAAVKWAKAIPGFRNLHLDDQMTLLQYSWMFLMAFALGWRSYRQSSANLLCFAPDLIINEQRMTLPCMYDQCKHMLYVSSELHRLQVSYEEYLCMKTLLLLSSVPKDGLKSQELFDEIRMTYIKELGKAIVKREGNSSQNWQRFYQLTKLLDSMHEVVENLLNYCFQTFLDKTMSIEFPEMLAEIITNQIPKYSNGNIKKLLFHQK
Summary of the method: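 Displacement of [3H]-dexamethasone (1.86 nM) from glucocorticoid receptor in sonicated A549 lung epithelial cell extracts, 16 h at 4 °C, pH 7.2 molybdate-containing buffer. Bound radioactivity was scintillation-counted after charcoal/dextran stripping of free ligand.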

[1] = [3H]-aldosterone binding, human MR expressed in Sf9 cells, read-out: MR Ki

SMILES	Ki (human MR; [1])	Ki (glucocorticoid receptor)	Ki (human MR)
C/C(=C1/c2ccccc2COc2c(F)cccc21)c1cccc(NS(C)(=O)=O)c1 [Example 788]	< 500 nM	< 500 nM	
C/C(=C1\c2ccccc2COc2ccc(F)cc21)c1cccc(NS(C)(=O)=O)c1 [Example 789]	< 500 nM	< 500 nM	
C/C(=C1\c2cc(F)ccc2COc2ccccc21)c1cccc(NS(C)(=O)=O)c1 [Example 790]	< 500 nM	< 500 nM	
C/C(=C1\c2ccccc2CCc2cc(Cl)ccc21)c1cccc(NS(C)(=O)=O)c1 [Example 793]	< 500 nM	< 500 nM	
C/C(=C1/c2ccccc2CCc2cc(Cl)ccc21)c1cccc(NS(C)(=O)=O)c1 [Example 794]	< 500 nM	< 500 nM	
C/C(=C1\c2ccccc2COc2ccccc21)c1cccc(NS(C)(=O)=O)c1 [Example 795]	< 500 nM	< 500 nM	
C/C(=C1/c2ccccc2COc2ccccc21)c1cccc(NS(C)(=O)=O)c1 [Example 796]	< 500 nM	< 500 nM	
C/C(=C1/c2ccc(Cl)cc2COc2ccccc21)c1cccc(NS(C)(=O)=O)c1 [Example 797]	< 500 nM	< 500 nM	
C/C(=C1\c2ccc(Cl)cc2COc2ccccc21)c1cccc(NS(C)(=O)=O)c1 [Example 798]	< 500 nM	< 500 nM	
CC/C(=C1\c2ccccc2COc2ccccc21)c1cccc(NS(C)(=O)=O)c1 [Example 799]	< 500 nM	< 500 nM	
CC/C(=C1/c2ccccc2COc2ccccc21)c1cccc(NS(C)(=O)=O)c1 [Example 800]	< 500 nM	< 500 nM	
CCC/C(=C1\c2ccccc2COc2ccccc21)c1cccc(NS(C)(=O)=O)c1 [Example 801]	< 500 nM	< 500 nM	
CCC/C(=C1/c2ccccc2COc2ccccc21)c1cccc(NS(C)(=O)=O)c1 [Example 802]	< 500 nM	< 500 nM	
C/C(=C1/c2ccc(Cl)cc2COc2cc(F)ccc21)c1cccc(NS(C)(=O)=O)c1 [Example 803]	< 500 nM	< 500 nM	
C/C(=C1\c2ccc(Cl)cc2COc2cc(F)ccc21)c1cccc(NS(C)(=O)=O)c1 [Example 804]	< 500 nM	< 500 nM	
CS(=O)(=O)Nc1cccc(/C(F)=C2\c3ccccc3COc3ccccc32)c1 [Example 806]	< 500 nM	< 500 nM	
C/C(=C1/c2ccccc2COc2cc(F)ccc21)c1cccc(NS(C)(=O)=O)c1 [Example 807]	< 500 nM	< 500 nM	
C/C(=C1\c2ccccc2COc2cc(F)ccc21)c1cccc(NS(C)(=O)=O)c1 [Example 808]	< 500 nM	< 500 nM	
C/C(=C1/c2ccc(F)cc2COc2cc(F)ccc21)c1cccc(NS(C)(=O)=O)c1 [Example 809]	< 500 nM	< 500 nM	
C/C(=C1\c2ccc(F)cc2COc2cc(F)ccc21)c1cccc(NS(C)(=O)=O)c1 [Example 810]	< 500 nM	< 500 nM	
CC/C(=C1\c2ccccc2COc2cc(F)ccc21)c1cccc(NS(C)(=O)=O)c1 [Example 811]	< 500 nM	< 500 nM	
CC/C(=C1/c2ccccc2COc2cc(F)ccc21)c1cccc(NS(C)(=O)=O)c1 [Example 812]	< 500 nM	< 500 nM	
C/C(=C1\c2ccccc2COc2cc(OCC3CC3)ccc21)c1cccc(NS(C)(=O)=O)c1 [Example 813]	< 500 nM	< 500 nM	

SMILES	Ki (human MR; [1])	Ki (glucocorticoid receptor)	Ki (human MR)
C/C(=C1/c2ccccc2COc2cc(OCC3CC3)ccc21)c1cccc(NS(C)(=O)=O)c1 [Example 814]	< 500 nM	< 500 nM	
COc1ccc2c(c1)COc1ccccc1/C2=C(/C)c1cccc(NS(C)(=O)=O)c1 [Example 817]	< 500 nM	< 500 nM	
COc1ccc2c(c1)COc1ccccc1/C2=C(\C)c1cccc(NS(C)(=O)=O)c1 [Example 818]	< 500 nM	< 500 nM	
COc1ccc2c(c1)COc1cc(F)ccc1/C2=C(/C)c1cccc(NS(C)(=O)=O)c1 [Example 819]		< 500 nM	< 500 nM
COc1ccc2c(c1)COc1cc(F)ccc1/C2=C(\C)c1cccc(NS(C)(=O)=O)c1 [Example 820]		< 500 nM	< 500 nM
CC/C(=C1/c2ccc(OC)cc2COc2ccccc21)c1cccc(NS(C)(=O)=O)c1 [Example 821]	< 500 nM	< 500 nM	
CC/C(=C1\c2ccc(OC)cc2COc2ccccc21)c1cccc(NS(C)(=O)=O)c1 [Example 822]	< 500 nM	< 500 nM	
CC/C(=C1/c2ccc(OC)cc2COc2cc(F)ccc21)c1cccc(NS(C)(=O)=O)c1 [Example 823]	< 500 nM	< 500 nM	
CC/C(=C1\c2ccc(OC)cc2COc2cc(F)ccc21)c1cccc(NS(C)(=O)=O)c1 [Example 824]	< 500 nM	< 500 nM	
COc1ccc2c(c1)CCc1cc(C)ccc1C2=C(C)c1cccc(NS(C)(=O)=O)c1 [Example 827]	< 500 nM	< 500 nM	
COc1ccc2c(c1)CCc1cc(C)ccc1/C2=C(/C)c1cccc(NS(C)(=O)=O)c1 [Example 828]	< 500 nM	< 500 nM	
COc1ccc2c(c1)CCc1cc(C)ccc1/C2=C(\C)c1cccc(NS(C)(=O)=O)c1 [Example 829]	< 500 nM	< 500 nM	
CC(=C1c2ccc(C)cc2CCc2cc(F)ccc21)c1cccc(NS(C)(=O)=O)c1 [Example 830]	< 500 nM	< 500 nM	
C/C(=C1\c2ccc(C)cc2CCc2cc(F)ccc21)c1cccc(NS(C)(=O)=O)c1 [Example 831]	< 500 nM	< 500 nM	
C/C(=C1/c2ccc(C)cc2CCc2cc(F)ccc21)c1cccc(NS(C)(=O)=O)c1 [Example 832]	< 500 nM	< 500 nM	
CCC(=C1c2ccc(C)cc2CCc2cc(F)ccc21)c1cccc(NS(C)(=O)=O)c1 [Example 833]	< 500 nM	< 500 nM	
C/C(=C1/c2ccc(F)cc2CCc2ncccc21)c1cc(F)cc(NS(C)(=O)=O)c1 [Example 836]	< 500 nM	< 500 nM	
C/C(=C1\c2ccc(F)cc2CCc2ncccc21)c1cc(F)cc(NS(C)(=O)=O)c1 [Example 837]	< 500 nM	< 500 nM	
C/C(=C1/c2ccccc2COc2cc(F)ccc21)c1ccc2[nH]c(=O)[nH]c2c1 [Example 838]	< 500 nM	< 500 nM	
C/C(=C1\c2ccccc2COc2cc(F)ccc21)c1ccc2[nH]c(=O)[nH]c2c1 [Example 839]	< 500 nM	< 500 nM	
COc1ccc2c(c1)CSc1ccccc1C2=C(C)c1cccc(NS(C)(=O)=O)c1 [Example 840]	< 500 nM	< 500 nM	
COc1ccc2c(c1)CSc1ccccc1/C2=C(/C)c1cccc(NS(C)(=O)=O)c1 [Example 841]	< 500 nM	< 500 nM	
